Columns and labels:
[1] = 3 week-old rats; cited from earlier work
[2] = healthy individuals; cited from earlier work
PPARα = target: T1, PPARα (Homo sapiens, UniProt Q07869); settings: cited from earlier work
T1 sequence (Q07869 1-468): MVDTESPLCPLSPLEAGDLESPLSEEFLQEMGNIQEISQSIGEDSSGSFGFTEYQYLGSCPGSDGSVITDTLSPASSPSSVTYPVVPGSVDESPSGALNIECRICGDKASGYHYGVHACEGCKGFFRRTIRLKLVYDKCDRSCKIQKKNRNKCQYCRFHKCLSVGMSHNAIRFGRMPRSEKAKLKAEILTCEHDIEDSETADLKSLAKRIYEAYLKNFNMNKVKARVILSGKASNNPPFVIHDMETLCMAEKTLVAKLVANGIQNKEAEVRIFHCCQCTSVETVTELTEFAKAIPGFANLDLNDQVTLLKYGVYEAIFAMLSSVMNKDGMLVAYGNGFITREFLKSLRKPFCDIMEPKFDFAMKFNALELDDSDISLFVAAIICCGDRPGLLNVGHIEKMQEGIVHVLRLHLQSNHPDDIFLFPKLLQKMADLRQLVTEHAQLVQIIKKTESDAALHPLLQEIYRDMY

[3] = obese adults; cited from earlier work
[4] = tested on: pluripotent stem cells derived cardiomyocytes; assay: Immunofluorescence / cell shape analysis of stem cell-derived cardiomyocytes; assay type: cell-based, human; settings: OA+9CLA+GW9662
Description: Cultured cells were fixed using 4% paraformaldehyde for 15 minutes at room temperature. Cells were then permeabilized in blocking solution (2% bovine serum albumin (BSA) and 0.25% Triton X-100 in PBS) for one hour at room temperature and incubated with primary antibodies (Table 13 below) for an additional hour. Following washes, cells were incubated with secondary antibodies (Table 14 below) for 1 hour at room temperature in blocking solution, washed twice in PBS and counterstained with 1 µg/ml Hoechest 33258 (Sigma Aldrich, USA) for 5 minutes. Imaging was performed on a Zeiss LSM 700 confocal microscope. Staining of actin was carried out simultaneously with secondary antibody incubation step by adding a 1:100 of Rhodamine-Phalloidin solution. Microscopic single cell and mitochondrial shape analysis was carried out using the CellProfiler software. Mitochondrial elongation was scored from 0 to 1, where 0 corresponds to a circle and 1 to a rectangle.
(§1) Cells were seeded on Matrigel in mTeSR-1 medium and allowed to reach 80-90% confluence. Cardiac differentiation was conducted as previously described (Burridge, P. W. et al. Chemically defined generation of human cardiomyocytes. Nat Methods 11, 855-860, 2014). Briefly, a basal medium named CDM3 was used (RPMI-1640, 500 µg/mL recombinant human serum albumin, 213 µg/mL L-ascorbic acid 2-phosphate and 1% penicillin/streptomycin). […]

[5] = tested on: stem cell-derived cardiomyocytes; assay: Seahorse MitoStress analysis of stem cell-derived cardiomyocytes; assay type: cell-based, human
Description: as §1, with “penicillin/streptomycin). At day zero of differentiation, the medium was replaced with CDM3 supplemented with 6 µmol/L CHIR99021 (Stemgent) for two days. At day two of the differentiation the culture-medium was switched to CDM3 medium supplemented with 2 µM Wnt-C59 (Selleckchem), for additional two days. From day four onward, cells were cultured with RPMI supplemented with B27-I (B27 supplement without Insulin; Gibco, USA).” for “penicillin/streptomycin).”
Mitochondrial function was measured using the Seahorse XF Cell Mito Stress Test Kit according to the manufacturer’s instructions (Agilent, Santa Clara, CA). […] The basal oxygen consumption rate (OCR) was measured for 30 minutes and then injected 1 µM oligomycin, a mitochondrial complex V inhibitor that blocks oxidative phosphorylation. […]

[6] = human subjects; cited from earlier work
[7] = tested on: human embryonic stem cells; settings: hESC on mouse fibroblast feeder layers; cited from earlier work
human muscle cells = settings: cited from earlier work
adipocytes = settings: short term exposure; cited from earlier work
UN1 iPSC = assay: Fatty acid supplementation at different steps of 4-step cardiac differentiation; assay type: cell-based, human; settings: preliminary studies
Description: FIGS. 3A-B. Addition of OA+9CLA during differentiation impairs differentiation. (A) Light Microscopy of UN1 iPSC during 4-step cardiac differentiation (methods) supplemented with 100 µM oleic acid and 50 µM 9CLA at different steps. […] (B) Quantification of portion of complete well death (left) and portion of beating wells resulted by supplementation with 100 µM oleic acid and 50 µM 9CLA at different steps of the 4-step cardiac differentiation (n=24; methods).
as §1, with “penicillin/streptomycin). At day zero of differentiation, the medium was replaced with CDM3 supplemented with 6 µmol/L CHIR99021 (Stemgent) for two days. At day two of the differentiation the culture-medium was switched to CDM3 medium supplemented with 2 µM Wnt-C59 (Selleckchem), for additional two days. From day four onward, cells were cultured with RPMI supplemented with B27-I (B27 supplement without Insulin; Gibco, USA).” for “penicillin/streptomycin).”

For `CCCCCC/C=C/C=C\CCCCCCCC(=O)O` [9CLA, 9Z,11E-octadeca-9,11-dienoic acid], the effect of treatment [1] is given as “did not have a beneficial effect”, the “low density lipoproteins (LDL)” value [2] is given as “decreasing” and the “activity at PPARα” value (PPARα) is given as “agonist”. For the same compound, the “insulin sensitivity and lipid peroxidation” value [3] was “increasing”.

With `O=C(Nc1ccccc1)c1cc([N+](=O)[O-])ccc1Cl` [GW9662] the “effect of PPARα/γ inhibition on OA+9CLA-induced cell area increase” value [4] was “reversed”, the “effect of GW9662 on the effect of postnatal lipids, in all cases” value ([5]; all readouts (respiration, glycolysis, cell area, gene expression), 10 µM GW9662) was “reversed” and the “effect of GW9662 on fatty acid-induced respiration increase and glycolysis decrease” value ([5]; short-term exposure to GW9662 with OA+9CLA) was “reversed both effects”.

For conjugated linoleic acid [CLA], the “effect on endothelial function” value [6] is given as “negative effect”, the “decrease of differentiation of stem cell colonies” value [7] is given as 20% and the myogenic gene expression (human muscle cells) is given as “suppressed myogenic gene expression”. For the same compound, the “differentiation of mature adipocytes” value (adipocytes) was “delayed the differentiation of mature adipocytes”, the “outcome of addition during cardiomyocyte differentiation” value (UN1 iPSC) was “immature fibroblast-like cells that did not start beating” and the “outcome of addition on terminally differentiated beating cardiomyocytes” value (UN1 iPSC) was “mature cardiomyocytes”.

Source: patent US20230295575A1, “METHODS OF INCREASING MATURATION OF HEART, PANCREATIC BETA-CELLS, AND NEURONS” (Yissum Research Development Company of the Hebrew …, priority 2020, published 2023)
